Patent US20040024024A1, “Aromatic sulfone hydroxamates and their use as protease inhibitors” (priority 2001, published 2004)

Key:
Test in all cases: In vitro MMP inhibition, IC50 determination (fluorogenic substrate I)
Assay type in all cases: biochemical
Human recombinant MMP-2 = target: T1, Human recombinant MMP-2 (Homo sapiens, UniProt P08253)
T1 construct: made in house; host or cells: MMP-2-transfected p2AHT2 cells
T1 sequence (P08253 110-660): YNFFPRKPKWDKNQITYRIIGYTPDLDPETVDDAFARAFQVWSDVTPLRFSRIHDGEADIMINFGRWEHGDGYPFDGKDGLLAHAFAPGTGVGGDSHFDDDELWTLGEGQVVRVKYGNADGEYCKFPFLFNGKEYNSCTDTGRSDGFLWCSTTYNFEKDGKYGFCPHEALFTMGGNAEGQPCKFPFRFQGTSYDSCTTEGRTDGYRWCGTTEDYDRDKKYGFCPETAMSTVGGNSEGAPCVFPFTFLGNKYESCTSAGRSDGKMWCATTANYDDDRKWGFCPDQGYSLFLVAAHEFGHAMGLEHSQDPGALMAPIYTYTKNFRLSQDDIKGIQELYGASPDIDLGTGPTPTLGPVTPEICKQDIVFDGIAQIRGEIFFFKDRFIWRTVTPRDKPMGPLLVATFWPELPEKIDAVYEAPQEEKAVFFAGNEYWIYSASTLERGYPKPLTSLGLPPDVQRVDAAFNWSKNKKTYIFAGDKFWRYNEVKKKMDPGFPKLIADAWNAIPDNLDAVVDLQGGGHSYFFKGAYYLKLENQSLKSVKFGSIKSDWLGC
Procedure, shortened: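 IC50 was derived from the concentration-dependent fall in fluorescence (ex 328, em 415 nm) on Gly-Leu cleavage of 4 μM MCA/Dpa-quenched substrate I. Assays ran at room temperature in pH 7.5 Tris/NaCl/CaCl2/Brij buffer with MMP-2 activated by trypsin or APMA; inhibitors were diluted from 1% DMSO stocks.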

Human recombinant MMP-1 = target: T2, Human recombinant MMP-1 (Homo sapiens, UniProt P03956)
T2 construct: made in house; host or cells: MMP-1-transfected HT-1080 cells (spent media)
T2 sequence (P03956 100-469): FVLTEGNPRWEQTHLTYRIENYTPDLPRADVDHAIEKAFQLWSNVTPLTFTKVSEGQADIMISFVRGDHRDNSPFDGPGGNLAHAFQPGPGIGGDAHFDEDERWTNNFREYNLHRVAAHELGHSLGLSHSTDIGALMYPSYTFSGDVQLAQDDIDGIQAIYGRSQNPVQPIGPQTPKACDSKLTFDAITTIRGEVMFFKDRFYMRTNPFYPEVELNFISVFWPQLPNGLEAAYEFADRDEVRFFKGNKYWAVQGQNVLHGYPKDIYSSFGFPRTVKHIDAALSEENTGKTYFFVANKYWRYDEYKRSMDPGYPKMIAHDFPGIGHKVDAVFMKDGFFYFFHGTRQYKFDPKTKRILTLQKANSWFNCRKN
Procedure, shortened: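 Inhibitor dilutions were made in 100 mM Tris-HCl/100 mM NaCl/10 mM CaCl2 buffer, pH 7.5, and incubated at room temperature with activated proenzyme (from transfected HT-1080 media; APMA or trypsin) and 4 μM quenched methoxycoumarin peptide substrate. Loss of 415 nm fluorescence (328 nm excitation) against concentration gave IC50.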

Human recombinant MMP-14 = target: T3, Human recombinant MMP-14 (Homo sapiens, UniProt P50281)
T3 construct: The catalytic domain enzyme was expressed in E. coli inclusion bodies, solubilized in urea; made in house
Description: (§1) Several hydroxamates and salts thereof were analyzed in in vitro assays to determine their ability to inhibit the MMP cleavage of peptide substrates. Inhibition (Ki) and IC50 constants were calculated from the assayed hydroxamate-MMP interactions.
(§2) Human recombinant MMP-1, MMP-2, MMP-9, MMP-13, and MMP-14 were used in this assay. All enzymes were prepared in Assignee's laboratories following usual laboratory procedures. Protocols for the preparation and use of these enzymes are available in the scientific literature. See, e.g., Enzyme Nomenclature (Academic Press, San Diego, Calif., 1992) (and the citations therein). See also, Frije et al., J. Biol. Chem., 26(24), 16766-73 (1994).
The MMP-14 full length cDNA was provided by Dr. Gregory Goldberg of Washington University (St. Louis, Mo.). The catalytic domain enzyme was expressed in E. coli inclusion bodies, solubilized in urea, purified on a preparative […] reverse phase HPLC column, and then refolded in the presence of zinc acetate and purified for use.
(§3) All MMPs were activated using 4-aminophenylmercuric acetate (“APMA”, Sigma Chemical, St. Louis, Mo.) or trypsin. MMP-9 also was activated using human recombinant MMP-3 (purified in Assignee's laboratory following standard cloning and purification techniques).
(§4) Two fluorogenic, methoxycoumarin-containing polypeptide substrates were used in the MMP inhibition assays:
(§5) MCA-ProLeuGlyLeuDpaAlaArgNH2 (I)
(§6) Here, “Dpa” is 3-(2,4-dinitrophenyl)-L-2,3-diaminopropionyl group, and “MCA” is 7-methoxycoumarin-4-yl acetyl. Substrate (I) was purchased from Baychem (Redwood City, Calif.), and substrate II was prepared Assignee's laboratory. Substrate I was used in the IC50 determination assays, while substrate II was used in the Ki determination assays. In the absence of MMP inhibitory activity, either substrate is cleaved at the Gly-Leu peptide bond. This cleavage separates the highly fluorogenic peptide from the 2,4-dinitrophenyl quencher, thus resulting in increase of fluorescent intensity.
(§7) The stock solutions of the assayed hydroxamates (or salts thereof) were prepared in 1% dimethyl sulfoxide (DMSO). These stock solutions were diluted in Buffer A (100 mM Tris-HCl, 100 mM NaCl, 10 mM CaCl2, 0.05% polyoxyethylene 23 lauryl ether, pH 7.5) to obtain solutions with different hydroxamate concentrations, i.e., assay solutions with different concentrations of the assayed MMP inhibitory compound. The experiment controls contained the same amount of Buffer A/DMSO as the assayed sample, but contained no hydroxamate (or salt thereof).
(§8) The assays from which the IC50 determinations were made were performed as follows. The MMPs were activated with either trypsin or APMA (4-aminophenylmercuric acetate, Sigma Chemical, St. Louis, Mo.). The assayed hydroxamate samples were, incubated in Microfluorrm White Plates (Dynatech, Chantilly, VA) and analyzed on a Perkin Elmer L550 plate reader (Norwalk, Conn.). The excitation wavelength was 328 nm, and the emission wavelength—415 nm. All samples (assayed hydroxamates and controls) were incubated in separate plates at room temperature in the presence of 4 μM of MMP substrate (I). As stated in the previous paragraph, samples containing varying concentrations of the same assayed hydroxamate were prepared. Inhibition was measured as a reduction in fluorescent intensity as a function of MMP inhibitor concentration.

Human recombinant MMP-13 = target: T4, Human recombinant MMP-13 (Homo sapiens, UniProt P45452)
T4 construct: made in house; host or cells: baculovirus / insect cells
Procedure, shortened: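 Fluorescence at 415 nm (excitation 328 nm) reports Gly-Leu cleavage of 4 μM quenched methoxycoumarin peptide substrate I. Human recombinant MMP-13, activated by trypsin or APMA, was incubated at room temperature with varied inhibitor concentrations in pH 7.5 Tris/NaCl/CaCl2 buffer; IC50 derived from reduced fluorescence.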

Human recombinant MMP-9 = target: T5, Human recombinant MMP-9 (Homo sapiens, UniProt P14780)
T5 construct: made in house; host or cells: MMP-9-transfected HT1080 cells (spent media)
Description: as §1, §2
The MMP-9 proenzyme was purified by gelatin Sepharose chromatography from spent media of MMP-9-transfected HT1080 cells provided by Dr. Howard Welgus of Washington University (St. Louis, Mo.).
as §3, §4, §5, §6, §7, §8

[1] = value outside parentheses (Ki in parenthesis)
[2] = substrate (I) 4 μM, room temperature, values not in parenthesis

T5 sequence (P14780 107-707 limits assumed): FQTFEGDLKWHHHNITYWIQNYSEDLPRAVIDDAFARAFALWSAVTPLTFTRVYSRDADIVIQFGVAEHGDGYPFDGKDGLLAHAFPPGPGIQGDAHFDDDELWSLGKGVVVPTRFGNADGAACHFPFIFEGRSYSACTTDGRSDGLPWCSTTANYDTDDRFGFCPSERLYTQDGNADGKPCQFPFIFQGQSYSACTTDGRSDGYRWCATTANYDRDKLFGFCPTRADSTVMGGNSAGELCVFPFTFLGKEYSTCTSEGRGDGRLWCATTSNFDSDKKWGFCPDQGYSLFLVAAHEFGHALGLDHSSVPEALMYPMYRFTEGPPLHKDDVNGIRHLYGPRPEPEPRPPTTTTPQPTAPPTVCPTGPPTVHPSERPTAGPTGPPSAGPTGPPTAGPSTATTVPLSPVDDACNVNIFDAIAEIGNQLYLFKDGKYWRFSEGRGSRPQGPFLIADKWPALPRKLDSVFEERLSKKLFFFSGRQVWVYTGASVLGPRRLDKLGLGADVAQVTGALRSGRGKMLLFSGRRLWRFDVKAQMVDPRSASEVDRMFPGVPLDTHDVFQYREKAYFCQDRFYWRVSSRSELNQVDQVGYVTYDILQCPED

Row | IC50 (Human recombinant MMP-2; value outside parenthesis) [nM] | IC50 (Human recombinant MMP-1; value outside parenthesis) [µM] | IC50 (Human recombinant MMP-14; value outside parenthesis) [µM] | IC50 (Human recombinant MMP-13; value outside parenthesis) [nM] | IC50 (Human recombinant MMP-9; value outside parenthesis) [nM] | IC50 (Human recombinant MMP-2; [1]) [nM] | IC50 (Human recombinant MMP-1; [1]) [µM] | IC50 (Human recombinant MMP-14; [1]) [µM] | IC50 (Human recombinant MMP-13; [1]) [nM] | IC50 (Human recombinant MMP-9; [1]) [nM] | SMILES | also measured
1 | 760 | > 10 | > 10 | 1.9 | 7670 | – | – | – | – | – | O=C(NO)C1(S(=O)(=O)c2ccc(OCCc3cccc(-c4ccc(F)c(F)c4)c3)cc2)CCOCC1 [Example 122] | –
2 | – | – | – | – | – | 250 | > 10 | > 10 | 1.8 | > 10000 | CCCCOc1ccc(C(=O)NCCCOc2ccc(S(=O)(=O)C3(C(=O)NO)CCOCC3)cc2)cc1 [Example 364] | –
3 | – | – | – | – | – | 1 | > 10 | 1.45 | 5 | 34 | O=C(NO)C1(S(=O)(=O)c2ccc(OCCC3CCCCC3)cc2)CCOCC1 [Example 478] | –
4 | – | – | – | – | – | – | – | – | – | – | CN(CCCOc1ccc(S(=O)(=O)C2(C(=O)NO)CCOCC2)cc1)C(=O)c1ccc(N(C)C)cc1 [Example 19, 4-[[4-[3-[[4-(dimethylamino)benzoyl]methylamino]propoxy]phenyl]sulfonyl]tetrahydro-N-hydroxy-2H-pyran-4-carboxamide] | IC50 (Human recombinant MMP-2; [2]): 9000 nM; IC50 (Human recombinant MMP-1; [2]): > 10 µM; IC50 (Human recombinant MMP-14; [2]): > 10 µM; IC50 (Human recombinant MMP-13; [2]): 15 nM; IC50 (Human recombinant MMP-9; [2]): 5190 nM
5 | – | – | – | – | – | 18.2 | > 10 | 5.63 | 0.2 | 928 | CN(C)c1ccc(C(=O)CCCOc2ccc(S(=O)(=O)C3(C(=O)NO)CCOCC3)cc2)cc1 [Example 490] | –
6 | – | – | – | – | – | 145 | > 10 | > 10 | 25 | 700 | CCCCOCCCNc1ccc(S(=O)(=O)C2(C(=O)NO)CCOCC2)cc1 [Example 460] | –
7 | – | – | – | – | – | – | – | – | – | – | O=C(NO)C1(S(=O)(=O)c2ccc(OCCOc3cccc(F)c3)cc2)CCOCC1 [Example 669] | IC50 (Human recombinant MMP-2; value outside parentheses): 19.3 nM; IC50 (Human recombinant MMP-1; value outside parentheses): > 10 µM; IC50 (Human recombinant MMP-14; value outside parentheses): 2.67 µM; IC50 (Human recombinant MMP-13; value outside parentheses): 7.24 nM; IC50 (Human recombinant MMP-9; value outside parentheses): 39.1 nM
8 | – | – | – | – | – | – | – | – | – | – | CN(C)C(=O)c1cccc(OCCOc2ccc(S(=O)(=O)C3(C(=O)NO)CCOCC3)cc2)c1 [Example 666] | IC50 (Human recombinant MMP-2; value outside parentheses): 1.52 nM; IC50 (Human recombinant MMP-1; value outside parentheses): > 10 µM; IC50 (Human recombinant MMP-14; value outside parentheses): > 10 µM; IC50 (Human recombinant MMP-13; value outside parentheses): 17.2 nM; IC50 (Human recombinant MMP-9; value outside parentheses): 4450 nM
9 | – | – | – | – | – | 30 | > 10 | 3.6 | 2 | 120 | CCCC(CCOc1ccc(S(=O)(=O)C2(C(=O)NO)CCOCC2)cc1)SC (stereo not shown) [Example 475] | –
10 | 128 | > 10 | > 10 | 0.7 | 4510 | – | – | – | – | – | Cc1ccc(/C(C#N)=C/CCCOc2ccc(S(=O)(=O)C3(C(=O)NO)CCN(C4CC4)CC3)cc2)cc1C [Example 201] | –
11 | 92.6 | > 10 | 3.11 | 15.8 | 59.4 | – | – | – | – | – | CCCc1ccc(-c2nc(CCCOc3ccc(S(=O)(=O)C4(C(=O)NO)CCN(CCOC)CC4)cc3)oc2C)cc1 [Example 206] | –
12 | 163 | > 10 | > 10 | 5.3 | 287 | – | – | – | – | – | CCOc1ccccc1-c1noc(CCCOc2ccc(S(=O)(=O)C3(C(=O)NO)CCOCC3)cc2)n1 [Example 264] | –
13 | – | – | – | – | – | 1700 | > 10 | > 10 | 3.7 | 626 | O=C(NO)C1(S(=O)(=O)c2ccc(OCCCNc3nc4ccccc4o3)cc2)CCOCC1 [Example 321] | –
14 | – | – | – | – | – | 2350 | > 10 | > 10 | 1.9 | > 10000 | O=C(NCCCOc1ccc(S(=O)(=O)C2(C(=O)NO)CCOCC2)cc1)C12CC3CC(CC(C3)C1)C2 [Example 405] | –
15 | – | – | – | – | – | – | – | – | – | – | O=C(NCCSc1ccc(S(=O)(=O)C2(C(=O)NO)CCOCC2)cc1)c1nc2ccccc2o1 [Example 576] | IC50 (Human recombinant MMP-2; value outside parentheses): 233 nM; IC50 (Human recombinant MMP-1; value outside parentheses): > 10 µM; IC50 (Human recombinant MMP-14; value outside parentheses): > 10 µM; IC50 (Human recombinant MMP-13; value outside parentheses): 0.3 nM; IC50 (Human recombinant MMP-9; value outside parentheses): 397 nM
16 | 2720 | > 10 | > 10 | 10.1 | > 10000 | – | – | – | – | – | CN(CCCOc1ccc(S(=O)(=O)C2(C(=O)NO)CCOCC2)cc1)C(=O)c1ccc2ccccc2c1 [Example 289] | –
17 | 48.9 | > 10 | > 10 | 4.6 | 5180 | – | – | – | – | – | COc1cc(OC)cc(-c2noc(CCCOc3ccc(S(=O)(=O)C4(C(=O)NO)CCOCC4)cc3)n2)c1 [Example 217] | –
18 | – | – | – | – | – | 4 | > 10 | 2.5 | 1 | 140 | CC(C)(COc1ccc(S(=O)(=O)C2(C(=O)NO)CCOCC2)cc1)CS(=O)(=O)Cc1cccc(OC(F)(F)F)c1 [Example 440] | –
19 | 126 | > 10 | > 10 | 2.5 | 674 | – | – | – | – | – | CCOc1ccc(-c2noc(CCCOc3ccc(S(=O)(=O)C4(C(=O)NO)CCN(C5CC5)CC4)cc3)n2)cc1 [Example 268] | –
20 | – | – | – | – | – | 150 | > 10 | > 10 | 0.8 | 9000 | COC(=O)c1ccc(C(=O)NCCCOc2ccc(S(=O)(=O)C3(C(=O)NO)CCOCC3)cc2)cc1 [Example 368] | –
